Like-named read-outs stand apart in the source and are kept apart here. Some results are limits rather than exact numbers.

This assay addresses T1, androgen receptor (AR) (Homo sapiens, UniProt P10275).
T1 sequence (P10275 1-920): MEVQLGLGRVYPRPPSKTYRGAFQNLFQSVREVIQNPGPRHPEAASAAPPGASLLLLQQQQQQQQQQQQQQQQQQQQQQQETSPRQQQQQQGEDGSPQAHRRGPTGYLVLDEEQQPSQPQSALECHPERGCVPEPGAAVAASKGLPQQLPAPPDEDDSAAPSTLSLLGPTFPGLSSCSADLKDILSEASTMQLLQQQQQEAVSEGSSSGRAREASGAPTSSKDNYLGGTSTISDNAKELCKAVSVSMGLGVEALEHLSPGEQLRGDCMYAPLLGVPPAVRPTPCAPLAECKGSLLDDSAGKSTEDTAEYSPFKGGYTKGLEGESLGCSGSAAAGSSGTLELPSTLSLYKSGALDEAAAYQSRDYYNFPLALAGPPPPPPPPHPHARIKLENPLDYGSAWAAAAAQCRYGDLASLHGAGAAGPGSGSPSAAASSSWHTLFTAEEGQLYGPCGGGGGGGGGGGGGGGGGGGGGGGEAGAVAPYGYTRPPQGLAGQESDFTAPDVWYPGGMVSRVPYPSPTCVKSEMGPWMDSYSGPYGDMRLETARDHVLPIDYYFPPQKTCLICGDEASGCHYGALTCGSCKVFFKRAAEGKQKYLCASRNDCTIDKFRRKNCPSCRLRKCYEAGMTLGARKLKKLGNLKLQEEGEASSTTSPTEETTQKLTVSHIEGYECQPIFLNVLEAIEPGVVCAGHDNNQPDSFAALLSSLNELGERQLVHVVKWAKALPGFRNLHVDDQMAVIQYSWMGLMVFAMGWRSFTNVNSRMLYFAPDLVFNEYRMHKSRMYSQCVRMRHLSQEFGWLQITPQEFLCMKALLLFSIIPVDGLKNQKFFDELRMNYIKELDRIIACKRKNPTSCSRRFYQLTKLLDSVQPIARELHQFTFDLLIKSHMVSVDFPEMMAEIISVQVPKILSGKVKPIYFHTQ
In words: Degradation of androgen receptor (AR) protein in VCaP cells by ELISA. The conditions noted are these: AR degradation, VCaP cells, 16 h, ELISA; for DC50: read-out: DC50; for Dmax: VCaP, read-out: Dmax (%). It is filed as cell-based. On the technique in general: ELISA stands for enzyme-linked immunosorbent assay.

As to `N#Cc1ccc(OC2CCC(NC(=O)c3cnc(N4CCN(C5CC6(CCN(c7ccc8c(c7)C(=O)N(C7CCC(=O)NC7=O)C8=O)CC6)C5)CC4)cn3)CC2)cc1Cl` (stereo not shown) [Compound 278, N-((1r,4r)-4-(3-chloro-4-cyanophenoxy)cyclohexyl)-5-(4-(7-(2-(2,6-dioxopiperidin-3-yl)-1,3-dioxoisoindolin-5-yl)-7-azaspiro[3.5]nonan-2-yl)piperazin-1-yl)pyrazine-2-carboxamide], under “Table 3-1”, the “Dmax (%)” value is “++++ (>80%)” and the DC50 (commonly the midpoint of the concentration-degradation curve) is below 10 nM.
On to `CC1(C)[C@H](Oc2ccc(C#N)c(Cl)c2)C(C)(C)[C@H]1N1Cc2nc(C#CC3CCC(N4CC5(CCN(c6cc7c(cc6F)C(=O)N(C6CCC(=O)NC6=O)C7=O)C5)C4)CC3)ccc2C1=O` (stereo partly shown) [Compound 371], for which, under “Table 3-1”, the “Dmax (%)” value is recorded as “++++ (>80%)” and the DC50 is 10 to 100 nM.
Take `N#Cc1ccc(O[C@H]2CC[C@H](NC(=O)c3cnc(N4CCN(C5CC6(CCN(c7cc8c(cc7F)C(=O)N(C7CCC(=O)NC7=O)C8=O)CC6)C5)CC4)cn3)CC2)cc1Cl` (stereo partly shown) [Compound 277, N-((1r,4r)-4-(3-chloro-4-cyanophenoxy)cyclohexyl)-5-(4-(7-(2-(2,6-dioxopiperidin-3-yl)-6-fluoro-1,3-dioxoisoindolin-5-yl)-7-azaspiro[3.5]nonan-2-yl)piperazin-1-yl)pyrazine-2-carboxamide]: where the note is “Table 3-1”, the DC50 lay in the range of 10 to 100 nM and the Dmax (in general, the largest share of the target that was removed) is above 80%.
For `N#Cc1ccc(O[C@H]2CC[C@H](NC(=O)c3nnc(N4CC5(CCN(CC6CCN(c7cc8c(cc7F)C(=O)N(C7CCC(=O)NC7=O)C8=O)CC6)CC5)C4)s3)CC2)cc1Cl` (stereo partly shown) [Compound 107, N-((1r,4r)-4-(3-chloro-4-cyanophenoxy)cyclohexyl)-5-(7-((1-(2-(2,6-dioxopiperidin-3-yl)-6-fluoro-1,3-dioxoisoindolin-5-yl)piperidine-4-yl)methyl)-2,7-diazaspiro[3.5]nonan-2-yl)-1,3,4-thiadiazole-2-carboxamide], for the setting “Table 3-2”, the DC50 was below 10 nM and the Dmax is above 80%.
`N#Cc1ccc(O[C@H]2CC[C@H](NC(=O)c3cnn([C@H]4CC[C@H](CN5CCC6(CC5)CN(c5ccc7c(c5)C(=O)N(C5CCC(=O)NC5=O)C7=O)C6)CC4)n3)CC2)cc1Cl` (stereo partly drawn) [Compound 116, N-((1r,4R)-4-(3-chloro-4-cyanophenoxy)cyclohexyl)-2-((1r,4R)-4-((2-(2-(2,6-dioxopiperidin-3-yl)-1,3-dioxoisoindolin-5-yl)-2,7-diazaspiro[3.5]nonan-7-yl)methyl)cyclohexyl)-2H-1,2,3-triazole-4-carboxamide]: under “Table 3-1”, the DC50 is below 10 nM and the Dmax was above 80%.
In the case of `N#Cc1ccc(OC2CCC(NC(=O)c3ncn(C4CCC(CN5CCC6(CC5)CN(c5cc7c(cc5F)C(=O)N(C5CCC(=O)NC5=O)C7=O)C6)CC4)n3)CC2)cc1Cl` [Compound 85, N-((1r,4R)-4-(3-chloro-4-cyanophenoxy)cyclohexyl)-1-((1r,4R)-4-((2-(2,6-dioxopiperidin-3-yl)-6-fluoro-1,3-dioxoisoindolin-5-yl)-2,7-diazaspiro[3.5]nonan-7-yl)methyl)cyclohexyl)-1H-1,2,4-triazole-3-formamide], for the setting “Table 3-1”, the “Dmax (%)” value is on record as “++++ (>80%)” and the half-maximal degradation concentration (DC50) fell in the range of 10 to 100 nM.
For the compound `N#Cc1ccc(O[C@H]2CC[C@H](NC(=O)c3cnc(N4CCC5(CC4)CN(CC4CCN(c6cc7c(cc6F)C(=O)N(C6CCC(=O)NC6=O)C7=O)CC4)C5)cn3)CC2)cc1Cl` (stereo partly shown) [Compound 76], where the note is “Table 3-1”, the DC50 is below 10 nM and the Dmax is above 80%.
On to `N#Cc1ccc(OC2CCC(NC(=O)c3cnc(N4CCC(CN5CC6(CCN(c7cc8c(cc7F)C(=O)N(C7CCC(=O)NC7=O)C8=O)CC6)C5)CC4)cn3)CC2)cc1Cl` (stereo not shown) [Compound 234, N-((1r,4r)-4-(3-chloro-4-cyanophenoxy)cyclohexyl)-5-(4-((7-(2,6-dioxopiperidin-3-yl)-6-fluoro-1,3-dioxoisoindolin-5-yl)-2,7-diazaspiro[3.5]nonan-2-yl)methyl)piperidin-1-yl)pyrazine-2-carboxamide], for which, where the note is “Table 3-1”, the DC50 is below 10 nM and the Dmax is above 80%.

Source of the values: patent publication US20230091225A1, “Bifunctional chimeric heterocyclic compounds for targeted degradation of androgen receptors and use thereof” (HINOVA PHARMACEUTICALS INC., priority 2019, published 2023).
